Assay results published in US12686690B2, “Macrocyclic urea orexin receptor agonists” (Merck Sharp & Dohme LLC, priority 2020, dated 2026).

Target: T1, hOX2R (Homo sapiens, UniProt O43614)
T1 construct: expressed in transfected cells; host or cells: CHO cells (G418 selection)
T1 sequence (O43614 1-444): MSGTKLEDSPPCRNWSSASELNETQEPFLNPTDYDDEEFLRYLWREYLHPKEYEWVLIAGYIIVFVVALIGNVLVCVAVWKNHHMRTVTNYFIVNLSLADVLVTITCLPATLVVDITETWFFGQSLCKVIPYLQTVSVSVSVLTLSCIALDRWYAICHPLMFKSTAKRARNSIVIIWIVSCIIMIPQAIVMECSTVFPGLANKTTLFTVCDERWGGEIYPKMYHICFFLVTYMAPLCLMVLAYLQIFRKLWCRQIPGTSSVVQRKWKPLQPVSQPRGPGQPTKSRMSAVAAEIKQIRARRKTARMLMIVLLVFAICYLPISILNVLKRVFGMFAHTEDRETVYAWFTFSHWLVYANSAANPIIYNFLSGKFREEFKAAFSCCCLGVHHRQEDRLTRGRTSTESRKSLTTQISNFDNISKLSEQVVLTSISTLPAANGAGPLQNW
Assay: hOX2R IPone assay (orexin receptor agonism)
Format: cell-based
Conditions: IPone readout; for hOX2R_Ipone max %act: maximal activation; for EC50: orexin receptor agonist, read-out: hOX2R_IPone EC50

| Compound | hOX2R_Ipone max %act [%] | EC50 [nM] |
| --- | --- | --- |
| CCN1C(=O)NCCCN2CCCC2COc2nc(cn3ccnc23)-c2cccc(c2)[C@H]1C (mixture of isomers) [Example 4, (12R)-13-ethyl-12-methyl-12,13,15,16,17,18,21,22,22a, 23-decahydro-14H,20H-6,25-(azeno)-11,7-(metheno)imidazo[1,2-s]pyrrolo[2,1-c][1,4,8,10,19]oxatetraaza-cyclohenicosin-14-one] | 79.4 | 3840 |
| CCN1C(=O)NCCN2CCCC(C2)Oc2nc(cn3ccnc23)-c2cccc(c2)[C@H]1C (mixture of isomers) [Example 5, (7R)-8-ethyl-7-methyl-18-oxa-8,10,13,21,24,26-hexaazapentacyclo[17.6.1.1~ 2,6~.1~13,17~.0~20,24~] octacosa-1(25),2(28),3,5,19(26),20,22-heptaen-9-one (non-preferred name)] | 93.82 | 1380 |
| CCN1C(=O)NCCN(C)CCC(C)Oc2nc(cn3ccnc23)-c2cccc(c2)[C@H]1C (mixture of isomers) [Example 16, (12R)-13-ethyl-12,18,21-trimethyl-12,13, 16,17,18,19,20,21-octahydro-6,23-(azeno)-11,7-(metheno) imidazo[2,1-c][1,4,13,15,18]oxa-tetraazacyclo-henicosin-14(15H)-one] | 77.7 | 3880 |
| CCN1C(=O)NC(C)CCCCCOc2nc(cn3ccnc23)-c2cccc(c2)[C@H]1C (mixture of isomers) [Example 18, (12R)-13-ethyl-12,16-dimethyl-12,13,16,17,18,19, 20,21-octahydro-6,23-(azeno)-11,7-(metheno) imidazo[2,1-c][1,4,13,15]oxatriaza-cyclohenicosin-14(15H)-one] | 98.6 | 26.6 |
| CCN1C(=O)NC(c2ccon2)CCCCCOc2nc(cn3ccnc23)-c2cccc(c2)[C@H]1C (mixture of isomers) [Example 20, (12R)-13-ethyl-12-methyl-16-(1,2-oxazol-3-yl)-12,13,16,17,18,19, 20,21-octahydro-6,23-(azeno)-11,7-(metheno) imidazo[2,1-c][1,4,13,15]oxa-triazacyclohenicosin-14(15H)-one] | 98.31 | 9.5 |
| CCN1C(=O)NC(COCC(F)F)CCCCCOc2nc(cn3ccnc23)-c2cc(ncc2OC)[C@H]1C (mixture of isomers) [Example 190, (3R,E)-7-((2,2-difluoroethoxy)methyl)-4-ethyl-25-methoxy-3-methyl-13-oxa-4,6-diaza-1(6,8)-imidazo[1,2-a]pyrazina-2(4,2)-pyridinacyclotridecaphan-5-one] | 101.7 | 0.61 |
| CCN1C(=O)N[C@@H](CCC(F)(F)F)CCCCCOc2cc(cc3ccnn23)-n2nc(cc2C2CC2)C1C (mixture of isomers) [Example 210, (16E,22E,7R)-25-cyclopropyl-4-ethyl-3-methyl-7-(3,3,3-trifluoropropyl)-21H-13-oxa-4,6-diaza-1(5,7)-pyrazolo[1,5-a]pyridina-2(1,3)-pyrazolacyclotridecaphan-5-one] | 102.8 | 5.24 |
| CCN1C(=O)NC2CN(CCCOc3nc(cn4ccnc34)-c3cccc(c3)[C@H]1C)CC2(F)F (mixture of isomers) [Example 213, (3R,E)-4-ethyl-7^4,7^4-difluoro-3-methyl-11-oxa-4,6-diaza-1(6,8)-imidazo[1,2-a]pyrazina-7(3,1)-pyrrolidina-2(1,3)-benzenacycloundecaphan-5-one] | 101.8 | 6.44 |
| CCN1C(=O)NCCC2CCC(C2)Oc2nc(cn3ccnc23)-c2cccc(c2)[C@H]1C (single isomer, unassigned) [Example 1A] | 92.5 | 1050 |
| CCN1C(=O)NC(CCC(F)(F)F)CCOCCOc2nc(cn3ccnc23)-c2cc(ncc2OC)[C@H]1C (single isomer, unassigned) [Example 6A] | 103.5 | 11.9 |
| CCN1C(=O)NC(CCC(F)(F)F)CCOCCOc2nc(cn3ccnc23)-c2cc(ncc2OC)[C@H]1C (single isomer, unassigned) [Example 6B] | 101.5 | 0.6 |
| CCN1C(=O)NC(C)CCCCCOc2nc(cn3ccnc23)-c2cc(ncc2OC)[C@H]1C (single isomer, unassigned) [Example 9A] | 99.27 | 416 |
| CCN1C(=O)NC(C)CCCCCOc2nc(cn3ccnc23)-c2cc(ncc2OC)[C@H]1C (single isomer, unassigned) [Example 9B] | 100.9 | 6 |
| CCN1C(=O)NC(c2cscn2)CCCCCOc2nc(cn3ccnc23)-c2cccc(c2)[C@H]1C (single isomer, unassigned) [Example 19A] | 97.1 | 337 |
| CCN1C(=O)NC(c2cscn2)CCCCCOc2nc(cn3ccnc23)-c2cccc(c2)[C@H]1C (single isomer, unassigned) [Example 19B] | 94.4 | 6.6 |
| CCN1C(=O)NC(CCC(F)(F)F)COCCCOc2nc(cn3ccnc23)-c2cc(ncc2OC)[C@H]1C (single isomer, unassigned) [Example 21A] | 100.4 | 19.6 |
| CCN1C(=O)NC(CCC(F)(F)F)COCCCOc2nc(cn3ccnc23)-c2cc(ncc2OC)[C@H]1C (single isomer, unassigned) [Example 21B] | 100.3 | 0.5 |
| CCN1C(=O)NCC(C(F)(F)F)N(C)CCOc2nc(cn3ccnc23)-c2cccc(c2)[C@H]1C (single isomer, unassigned) [Example 25A] | 96.6 | 250 |
| CCN1C(=O)NCC(C(F)(F)F)N(C)CCOc2nc(cn3ccnc23)-c2cccc(c2)[C@H]1C (single isomer, unassigned) [Example 25B] | 97.81 | 173 |
| CCN1C(=O)N[C@@H](CCC(F)(F)F)CCCCOc2nc(cn3ncnc23)-c2cc(ncc2OC)C1C(F)(F)F (single isomer, unassigned) [Example 34A] | 99.9 | 541 |
| CCN1C(=O)N[C@@H](CCC(F)(F)F)CCCCOc2nc(cn3ncnc23)-c2cc(ncc2OC)C1C(F)(F)F (single isomer, unassigned) [Example 34B] | 101.1 | 16.4 |
| CCN1C(=O)N[C@@H](CCC(F)(F)F)CCCCOc2nc(cn3cc(C)nc23)-c2cc(ncc2OC)C1C(F)(F)F (single isomer, unassigned) [Example 36A] | 101 | 64 |
| CCN1C(=O)N[C@@H](CCC(F)(F)F)CCCCOc2nc(cn3cc(C)nc23)-c2cc(ncc2OC)C1C(F)(F)F (single isomer, unassigned) [Example 36B] | 101.5 | 8.9 |
| CCN1C(=O)N[C@@H](C(F)(F)F)CCCCOc2nc(cn3ccnc23)-c2cc(ncc2OC)C1C(F)(F)F (single isomer, unassigned) [Example 39A] | 97.7 | 60.5 |
| CCN1C(=O)N[C@@H](C(F)(F)F)CCCCOc2nc(cn3ccnc23)-c2cc(ncc2OC)C1C(F)(F)F (single isomer, unassigned) [Example 39B] | 97.5 | 1060 |

Next, values leading:

| hOX2R_Ipone max %act [%] | EC50 [nM] | Compound |
| --- | --- | --- |
| 100.9 | 115 | CCN1C(=O)NC(CCC(F)(F)F)C(C)/C=C\COc2nc(cn3ccnc23)-c2cccc(c2)[C@H]1C (single isomer, unassigned) [Example 41A] |
| 100.4 | 21.3 | CCN1C(=O)NC(CCC(F)(F)F)C(C)/C=C\COc2nc(cn3ccnc23)-c2cccc(c2)[C@H]1C (single isomer, unassigned) [Example 41B] |
| 98.9 | 23.4 | CCN1C(=O)NC(CCC(F)(F)F)C(C)/C=C\COc2nc(cn3ccnc23)-c2cccc(c2)[C@H]1C (single isomer, unassigned) [Example 41C] |
| 100.6 | 6.6 | CCN1C(=O)NC(CCC(F)(F)F)C(C)CCCOc2nc(cn3ccnc23)-c2cccc(c2)[C@H]1C (single isomer, unassigned) [Example 42A] |
| 99.1 | 156 | CCN1C(=O)NC(CCC(F)(F)F)C(C)CCCOc2nc(cn3ccnc23)-c2cccc(c2)[C@H]1C (single isomer, unassigned) [Example 42B] |
| 99.7 | 8.6 | CCN1C(=O)NC(CCC(F)(F)F)C(C)CCCOc2nc(cn3ccnc23)-c2cccc(c2)[C@H]1C (single isomer, unassigned) [Example 42C] |
| 98.8 | 3.6 | CCN1C(=O)NC(CCC(F)(F)F)C(C)CCCOc2nc(cn3ccnc23)-c2cccc(c2)[C@H]1C (single isomer, unassigned) [Example 42D] |
| 99.4 | 4.1 | CCN1C(=O)NC(CCC(F)(F)F)CC(C)CCOc2nc(cn3ccnc23)-c2cccc(c2)[C@H]1C (single isomer, unassigned) [Example 48A] |
| 99.9 | 88.8 | CCN1C(=O)NC(CCC(F)(F)F)CC(C)CCOc2nc(cn3ccnc23)-c2cccc(c2)[C@H]1C (single isomer, unassigned) [Example 48B] |
| 97 | 548 | CCC1CCCCCOc2nc(cn3ccnc23)-c2cc(ncc2OC)[C@@H](C)N(CC)C(=O)N1 (single isomer, unassigned) [Example 52A] |
